Data from patent publication US9617289B2, “RSV antiviral compounds” (JANSSEN R&D IRELAND, priority 2012, dated 2017).
Where a name gives a salt, the structure may show the parent alone. Read-outs that look alike come from different tables or passages of the source.

Tested on: rgRSV224 virus
Experiment: Antiviral activity: inhibition of rgRSV224 (GFP-expressing RSV) replication in HeLa cells
Type: cell-based, respiratory syncytial virus
Settings: human respiratory syncytial virus, HeLa, 72 h
Method: Black 96-well clear-bottom microtiter plates (Corning, Amsterdam, The Netherlands) were filled in duplicate using a customized robot system with serial 4-fold dilutions of compound in a final volume of 50 μl culture medium [RPMI medium without phenol red, 10% FBS, 0.04% gentamycin (50 mg/ml) and 0.5% DMSO]. Then, 100 μl of a HeLa cell suspension (5×10^4 cells/ml) in culture medium was added to each well followed by the addition of 50 μl rgRSV224 (MOI=0.02) virus in culture medium using a multidrop dispenser (Thermo Scientific, Erembodegem, Belgium). rgRSV224 virus is an engineered virus that includes an additional GFP gene (Hallak et al, 2000) and was in-licensed from the NIH (Bethesda, Md., USA). Medium, virus- and mock-infected controls were included in each test. Cells were incubated at 37° C. in a 5% CO2 atmosphere. Three days post-virus exposure, viral replication was quantified by measuring GFP expression in the cells by a MSM laser microscope (Tibotec, Beerse, Belgium). The EC50 was defined as the 50% inhibitory concentration for GFP expression. In parallel, compounds were incubated for three days in a set of white 96-well microtitier plates (Corning) and the cytotoxicity of compounds in HeLa cells was determined by measuring the ATP content of the cells using the ATPlite kit (PerkinElmer, Zaventem, Belgium) according to the manufacturer's instructions. The CC50 was defined as the 50% concentration for cytotoxicity. SI is calculated as CC50/EC50.

[1] = read-out: pEC50, rgRSV224 (MOI=0.02) in HeLa cells, GFP expression three days post-virus exposure (converted)
[2] = read-out: RSV-wt_pEC50, rgRSV224 (MOI=0.02) in HeLa cells, GFP expression three days post-virus exposure

Structure (SMILES): N#CCCCn1c(CN2C(=O)C3(CCNCC3)c3ccncc32)nc2cc(Cl)ccc21 [Compound 84, 4-(5-chloro)-2-((2′-oxospiro[piperidine-4,3′-pyrrolo[2,3-c]-pyridin]-1′(2′H)-yl)methyl)-1H-benzo[d]imidazol-1-yl)butanenitrile hydrochloride]
- EC50 [1]: 0.631 nM

Structure (SMILES): N#CCCCn1c(CN2c3ccccc3[C@]3(C[C@@H](N)C3)C2=O)nc2cc(Cl)ccc21 [Compound 148, 4-(2-(((1r,3r)-3-amino-2′-oxospiro[cyclobutane-1,3′-indolin]-1′-yl)methyl)-5-chloro-1H-benzo[d]imidazol-1-yl)butanenitrile]
- EC50 [2]: 4.68 nM

Structure (SMILES): N#CCCCn1c(CN2c3ccccc3[C@]3(C[C@@H](OC(=O)NC4CC4)C3)C2=O)nc2cc(Cl)ccc21 [Compound 173, (1r,3r)-1′-((5-chloro-1-(3-cyanopropyl)-1H-benzo[d]imidazol-2-yl)methyl)-2′-oxospiro[cyclobutane-1,3′-indolin]-3-yl cyclopropylcarbamate]
- EC50 [2]: 0.0224 nM

Structure (SMILES): N#CCCCn1c(CN2C(=O)C3(CC(O)C3)c3ccccc32)nc2cc(Cl)ccc21 (stereo not drawn) [Compound 109, 4-{5-Chloro-2-[(3-hydroxy-2′-oxospiro[cyclobutane-1,3′-indol]-1′(2′H)-yl)methyl]-1H-benzimidazol-1-yl}butanenitrile]
- EC50 [2]: 0.191 nM

Structure (SMILES): O=C1N(Cc2nc3cc(Cl)ccc3n2CCCC(F)(F)F)c2ccccc2C12CCOCC2 [Compound 52, 1-((5-chloro-1-(4,4,4-trifluorobutyl)-1H-benzo[d]imidazol-2-yl)methyl)-2′,3′,5′,6′-tetrahydrospiro[indoline-3,4′-pyran]-2-one]
- EC50 [1]: 2.51 nM

Structure (SMILES): CC(=O)N1CC2(C1)C(=O)N(Cc1nc3cc(Cl)ccc3n1CCCC#N)c1ccccc12 [Compound 88, 4-(2-((1-acetyl-2′-oxospiro[azetidine-3,3′-indolin]-1′-yl)-methyl)-5-chloro-1H-benzo[d]imidazol-1-yl)butanenitrile]
- EC50 [1]: 0.398 nM

Structure (SMILES): CC(C)(C)OC(=O)N1CC2(C1)C(=O)N(Cc1nc3cc(Cl)ccc3n1CCCC(F)(F)F)c1ccccc12 [Compound 44, tert-butyl 1′-((5-chloro-1-(4,4,4-trifluorobutyl)-1H-benzo[d]imidazol-2-yl)methyl)-2′-oxospiro[azetidine-3,3′-indoline]-1-carboxylate]
- EC50 [1]: 0.251 nM

Structure (SMILES): CS(=O)(=O)CCCn1c(CN2C(=O)C3(CCN(S(=O)(=O)c4ccc5nccnc5c4)CC3)c3ccccc32)nc2cc(Cl)ccc21 [Compound 16, 1-((5-chloro-1-(3-(methylsulfonyl)propyl)-1H-benzo[d]-imidazol-2-yl)methyl)-1′-(quinoxalin-6-ylsulfonyl)spiro-[indoline-3,4′-piperidin]-2-one]
- EC50 [1]: < 0.158 nM

Structure (SMILES): O=C1CC2(C1)C(=O)N(Cc1nc3cc(Cl)ccc3n1CCCCF)c1ccccc12 [Compound 158, 1-{[5-Chloro-1-(4-fluorobutyl)-1H-benzimidazol-2-yl]methyl}-3H-spiro[cyclobutane-1,3′-indole]-2′,3(1′H)-dione]
- EC50 [2]: 0.575 nM

Structure (SMILES): CC(C)OC(=O)N1CCC2(CC1)C(=O)N(Cc1nc3cc(Cl)ccc3n1CCCC#N)c1cnccc12 [Compound 99, 1-Methylethyl 1′-{[5-chloro-1-(3-cyanopropyl)-1H-benzimidazol-2-yl]methyl}-2′-oxo-1′,2′-dihydro-1H-spiro[piperidine-4,3′-pyrrolo[2,3-c]pyridine]-1-carboxylate]
- EC50 [2]: 0.024 nM

Structure (SMILES): CC(C)(O)CN1CC2(C1)C(=O)N(Cc1nc3cc(Cl)ccc3n1CCCS(C)(=O)=O)c1ccccc12 [Compound 8, 1′-({5-chloro-1-[3-(methylsulfonyl)propyl]-1H-benzimidazol-2-yl}methyl)-1-(2-hydroxy-2-methylpropyl)spiro[azetidine-3,3′-indol]-2′(1′H)-one]
- EC50 [1]: 0.794 nM

Structure (SMILES): CC(C)(C)OC(=O)N1CCC2(CC1)C(=O)N(Cc1cc3cc(Cl)ccc3n1CCCC#N)c1cnccc12 [Compound 63, tert-butyl 1′-((5-chloro-1-(3-cyanopropyl)-1H-indol-2-yl)-methyl)-2′-oxo-1′,2′-dihydrospiro[piperidine-4,3′-pyrrolo-[2,3-c]pyridine]-1-carboxylate]
- EC50 [1]: 0.158 nM

Structure (SMILES): CC(C)(O)C(=O)N1CCC2(CC1)C(=O)N(Cc1c(C(N)=O)c3cc(Cl)ccc3n1CCCCF)c1cnccc12 [Compound 153, 5-Chloro-1-(4-fluorobutyl)-2-{[1-(2-hydroxy-2-methylpropanoyl)-2′-oxospiro[piperidine-4,3′-pyrrolo[2,3-c]pyridin]-1′(2′H)-yl]methyl}-1H-indole-3-carboxamide]
- EC50 [2]: 0.0575 nM

Structure (SMILES): CC(C)(O)C(=O)N1CC[C@@]2(C1)C(=O)N(Cc1nc3cc(Cl)ccc3n1CCCS(C)(=O)=O)c1ccccc12 [Compound 121, (R)-1-({5-Chloro-1-[3-(methylsulfonyl)propyl]-1H-benzimidazol-2-yl}methyl)-1′-(2-hydroxy-2-methylpropanoyl)spiro[indole-3,3′-pyrrolidin]-2(1H)-one]
- EC50 [2]: 8.51 nM

Structure (SMILES): CC(=O)NS(=O)(=O)N1CCC2(CC1)C(=O)N(Cc1nc3cc(Cl)ccc3n1CCCC#N)c1cnccc12 [Compound 95, N-[(1′-{[5-Chloro-1-(3-cyanopropyl)-1H-benzimidazol-2-yl]methyl}-2′-oxo-1′,2′-dihydro-1H-spiro[piperidine-4,3′-pyrrolo[2,3-c]pyridin]-1-yl)sulfonyl]acetamide]
- EC50 [2]: 0.0794 nM

Structure (SMILES): COC(=O)N1CCC2(CC1)C(=O)N(Cc1cc3cc(Cl)ccc3n1CCCC#N)c1cnccc12 [Compound 76]
- EC50 [1]: < 0.158 nM

Structure (SMILES): CC(=O)NS(=O)(=O)N1CC2(C1)C(=O)N(Cc1nc3cc(Cl)ccc3n1CCCC#N)c1ccccc12 [Compound 170, N-[(1′-{[5-Chloro-1-(3-cyanopropyl)-1H-benzimidazol-2-yl]methyl}-2′-oxo-1′,2′-dihydro-1H-spiro[azetidine-3,3′-indol]-1-yl)sulfonyl]acetamide]
- EC50 [2]: 0.269 nM

Structure (SMILES): CC(C)(C)OC(=O)N1CCC2(CC1)C(=O)N(Cc1nc3cc(Cl)ccc3n1CCCS(C)(=O)=O)c1ccccc12 [Compound 39, tert-butyl 1-((5-chloro-1-(3-(methylsulfonyl)propyl)-1H-benzo[d]imidazol-2-yl)methyl)-2-oxospiro[indoline-3,4′-piperidine]-1′-carboxylate]
- EC50 [1]: 0.631 nM

Structure (SMILES): CS(=O)(=O)CCCn1c(CN2C(=O)C3(CCN(S(C)(=O)=O)CC3)c3ccncc32)cc2cc(Cl)ccc21 [Compound 3, 1′-({5-chloro-1-[3-(methylsulfonyl)propyl]-1H-indol-2-yl}methyl)-1-(methylsulfonyl)spiro[piperidine-4,3′-pyrrolo[2,3-c]pyridin]-2′(1′H)-one]
- EC50 [1]: 0.0316 nM

Structure (SMILES): N#CCCCn1c(CN2C(=O)C3(CN(S(=O)(=O)c4ccc(F)cc4)C3)c3ccccc32)nc2cc(Cl)ccc21 [Compound 93, 4-[5-Chroro-2-({1-[(4-fluorophenyl)sulfonyl]-2′-oxospiro-[azetidine-3,3′-indol]-1′(2′H)-yl}methyl)-1H-benzimidazol-1-yl]butanenitrile]
- EC50 [2]: 1.62 nM

Structure (SMILES): CC(C)(C)OC(=O)N1CCC2(CC1)C(=O)N(Cc1cc3ccccc3n1CCCC(F)(F)F)c1cnccc12 [Compound 113, tert-Butyl 2′-oxo-1′-{[1-(4,4,4-trifluorobutyl)-1H-indol-2-yl]methyl}-1′,2′-dihydro-1H-spiro[piperidine-4,3′-pyrrolo[2,3-c]pyridine]-1-carboxylate]
- EC50 [2]: 66.1 nM

Structure (SMILES): CNC(=O)O[C@H]1C[C@@]2(C1)C(=O)N(Cc1cc3cc(Cl)ccc3n1CCCC#N)c1ccccc12 [Compound 123, (1r,3r)-1′-((5-chloro)-1-(3-cyanopropyl)-1H-indol-2-yl)methyl)-2′-oxospiro[cyclobutane-1,3′-indolin]-3-yl methylcarbamate]
- EC50 [2]: 0.339 nM

Structure (SMILES): CC(C)(O)C(=O)N1CCC2(C1)C(=O)N(Cc1nc3cc(Cl)ccc3n1CCCC#N)c1ccccc12 (stereo not drawn) [Compound 154, 4-(5-Chloro-2-{[1′-(2-hydroxy-2-methylpropanoyl)-2-oxospiro[indole-3,3′-pyrrolidin]-1(2H)-yl]methyl}-1H-benzimidazol-1-yl)butanenitrile]
- EC50 [2]: 1.17 nM

Structure (SMILES): N#CCCCn1c(CN2C(=O)C3(CN(S(=O)(=O)c4cccs4)C3)c3ccccc32)nc2cc(Cl)ccc21 [Compound 91]
- EC50 [2]: 0.234 nM

Structure (SMILES): CC(C)(C)OC(=O)N1CCC2(CC1)C(=O)N(Cc1nc3cc(Cl)ccc3n1CCCS(C)(=O)=O)c1ccc(Br)cc12 [Compound 23, tert-butyl 5-bromo-1-((5-chloro-1-(3-(methyl-sulfonyl)propyl)-1H-benzo[d]imidazol-2-yl)methyl)-2-oxospiro[indoline-3,4′-piperidine]-1′-carboxylate]
- EC50 [1]: 7.94 nM

Structure (SMILES): N#CCCCn1c(CN2C(=O)C3(CCS(=O)(=O)CC3)c3ccncc32)nc2cc(Cl)ccc21 [Compound 108, 4-{5-Chloro-2-[(1′,1′-dioxido-2-oxo-2′,3′,5′,6′,-tetrahydro-spiro[pyrrolo[2,3-c]pyridine-3,4′-thiopyran]-1(2H)-yl)-methyl]-1H-benzimidazol-1-yl}butanenitrile]
- EC50 [2]: 0.871 nM

Structure (SMILES): CC(C)(C)OC(=O)N1CCC2(CC1)C(=O)N(Cc1nc3cc(Cl)ccc3n1CCCC(F)(F)F)c1ccccc12 [Compound 48]
- EC50 [1]: 2.51 nM
